Experimental data from patent US20190284148A1, “MICROBIOCIDAL OXADIAZOLE DERIVATIVES” (SYNGENTA PARTICIPATIONS AG, priority 2016, published 2019).

How the values were obtained:
[1] = test system: Glomerella Lagenarium (Colletotrichum Lagenarium); assay: Glomerella lagenarium (Colletotrichum lagenarium) liquid culture / cucumber / preventative (anthracnose); format: cell-based; conditions: Colletotrichum orbiculare; 20 ppm in the applied formulation; liquid culture in PDB, 24° C., 3 to 4 days after application; read-out: disease control compared to untreated control (inhibition of growth measured photometrically)
Experimental: Mycelia fragments or conidia suspensions of a fungus prepared either freshly from liquid cultures of the fungus or from cryogenic storage, are directly mixed into nutrient broth. DMSO solutions of the test compound (max. 10 mg/ml) are diluted with 0.025% Tween20 by a factor of 50 and 10 μl of this solution is pipetted into a microtiter plate (96-well format). The nutrient broth containing the fungal spores/mycelia fragments is then added to give an end concentration of the tested compound. The test plates are incubated in the dark at 24° C. and 96% relative humidity. The inhibition of fungal growth is determined photometrically after 2 to 7 days, depending on the pathosystem, and percent antifungal activity relative to the untreated check is calculated.
Conidia of the fungus from cryogenic storage are directly mixed into nutrient broth (PDB—potato dextrose broth). After placing a (DMSO) solution of test compound into a microtiter plate (96-well format), the nutrient broth containing the fungal spores is added. The test plates are incubated at 24° C. and the inhibition of growth is measured photometrically 3 to 4 days after application.
The following compounds at 20 ppm in the applied formulation give at least 80% disease control in this test when compared to untreated control under the same conditions, which show extensive disease development.

[2] = test system: Puccinia Recondita f. sp. Tritici; assay: Puccinia recondita f. sp. tritici / wheat / leaf disc preventative (brown rust); format: in vivo; conditions: foliar, 200 ppm in the applied formulation, wheat leaf segments cv. Kanzler, preventative (inoculated 1 day after application), assessed 7 to 9 days after application, read-out: disease control compared to untreated control leaf disks
Experimental: Leaf disks or leaf segments of various plant species are cut from plants grown in a greenhouse. The cut leaf disks or segments are placed in multiwell plates (24-well format) onto water agar. The leaf disks are sprayed with a test solution before (preventative) or after (curative) inoculation. Compounds to be tested are prepared as DMSO solutions (max. 10 mg/ml) which are diluted to the appropriate concentration with 0.025% Tween20 just before spraying. The inoculated leaf disks or segments are incubated under defined conditions (temperature, relative humidity, light, etc.) according to the respective test system. A single evaluation of disease level is carried out 3 to 14 days after inoculation, depending on the pathosystem. Percent disease control relative to the untreated check leaf disks or segments is then calculated. Wheat leaf segments cv. Kanzler were placed on agar in multiwell plates (24-well format) and sprayed with the formulated test compound diluted in water. The leaf disks were inoculated with a spore suspension of the fungus 1 day after application. The inoculated leaf segments were incubated at 19° C. and 75% relative humidity (rh) under a light regime of 12 hours light/12 hours darkness in a climate cabinet and the activity of a compound was assessed as percent disease control compared to untreated when an appropriate level of disease damage appears in untreated check leaf segments (7 to 9 days after application). The following compounds at 200 ppm in the applied formulation give at least 80% disease control in this test when compared to untreated control leaf disks under the same conditions, which show extensive disease development.

[3] = test system: Puccinia Recondita f. sp. Tritici; assay: Puccinia recondita f. sp. tritici / wheat / leaf disc curative (brown rust); format: in vivo; conditions: foliar, 200 ppm in the applied formulation, wheat leaf segments cv. Kanzler, curative (applied 1 day after inoculation), assessed 6 to 8 days after application, read-out: disease control compared to untreated control leaf disks
Experimental: Leaf disks or leaf segments of various plant species are cut from plants grown in a greenhouse. The cut leaf disks or segments are placed in multiwell plates (24-well format) onto water agar. The leaf disks are sprayed with a test solution before (preventative) or after (curative) inoculation. Compounds to be tested are prepared as DMSO solutions (max. 10 mg/ml) which are diluted to the appropriate concentration with 0.025% Tween20 just before spraying. The inoculated leaf disks or segments are incubated under defined conditions (temperature, relative humidity, light, etc.) according to the respective test system. A single evaluation of disease level is carried out 3 to 14 days after inoculation, depending on the pathosystem. Percent disease control relative to the untreated check leaf disks or segments is then calculated.
Wheat leaf segments cv. Kanzler are placed on agar in multiwell plates (24-well format). The leaf segments are then inoculated with a spore suspension of the fungus. Plates were stored in darkness at 19° C. and 75% relative humidity. The formulated test compound diluted in water was applied 1 day after inoculation. The leaf segments were incubated at 19° C. and 75% relative humidity under a light regime of 12 hours light/12 hours darkness in a climate cabinet and the activity of a compound was assessed as percent disease control compared to untreated when an appropriate level of disease damage appears in untreated check leaf segments (6 to 8 days after application).
The following compounds at 200 ppm in the applied formulation give at least 80% disease control in this test when compared to untreated control leaf disks under the same conditions, which show extensive disease development.

melting point [°C] | Compound | inhibition at 20 ppm [1] [%] | pest or weed control at 200 ppm [2] [%] | pest or weed control at 200 ppm [3] [%]
86 to 91 | CCOC(=O)Nc1ccc(-c2noc(C(F)(F)F)n2)cc1F [Compound 1.9, ethyl N-[2-fluoro-4-[5-(trifluoromethyl)-1,2,4-oxadiazol-3-yl]phenyl]carbamate] | ≥ 80 | ≥ 80 | ≥ 80
73 to 76 | CON(C)C(=O)Nc1ccc(-c2noc(C(F)(F)F)n2)cc1C [Compound 1.10, 1-methoxy-1-methyl-3-[2-methyl-4-[5-(trifluoromethyl)-1,2,4-oxadiazol-3-yl]phenyl]urea] | ≥ 80 | ≥ 80 | ≥ 80
